Tests used:
Human IDO1 = biological target: T1, Human IDO1 (Homo sapiens, UniProt P14902); assay: IDO Kynurenine Assay with Human IDO1/HEK293 Cells; format: cell-based; conditions: read-out: HEK human IDO-1 (IC50)
T1 construct: expressed in transfected cells; host or cells: HEK293
How it was run: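 HEK293 cells stably expressing human IDO1, in phenol red-free RPMI/10% FBS, exposed to compound for 20 h at 37 °C. Stopped with 0.2% TCA (50 °C, 30 min); kynurenine in supernatant detected with Ehrlich reagent, absorbance 490 nm.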

IDO = IDO (Homo sapiens, UniProt P14902); assay: LLE_IDO_ABS_DR (IDO assay)
Chain of IDO (P14902 whole entry): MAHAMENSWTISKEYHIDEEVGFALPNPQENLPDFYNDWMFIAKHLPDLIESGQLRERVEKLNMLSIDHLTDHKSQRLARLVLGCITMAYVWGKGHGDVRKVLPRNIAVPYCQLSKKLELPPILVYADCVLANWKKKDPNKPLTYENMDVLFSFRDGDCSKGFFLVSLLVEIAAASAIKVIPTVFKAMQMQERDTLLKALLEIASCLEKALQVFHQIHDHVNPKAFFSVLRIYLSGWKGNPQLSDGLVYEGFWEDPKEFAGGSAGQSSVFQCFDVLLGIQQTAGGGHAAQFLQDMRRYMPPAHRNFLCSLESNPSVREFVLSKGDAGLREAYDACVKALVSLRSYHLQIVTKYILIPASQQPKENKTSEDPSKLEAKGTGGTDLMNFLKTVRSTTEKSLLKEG

T1 sequence (P14902 whole entry): as above

Structure (SMILES) | IC50 (Human IDO1) [nM] | IC50 (IDO) [nM]
Cc1ccc(NC(=O)Nc2cc(-c3ccccc3-c3nnn[nH]3)ccc2N(CCC(F)(F)F)Cc2ccc(Cl)cc2)cc1 [Example 16] | 20 | 10
CC(C)CN(CC(C)C)c1ccc(-c2ccccc2-c2nnn[nH]2)cc1NC(=O)Nc1ccc(Br)cc1F [Example 38, 1-(4-Bromo-2-fluorophenyl)-3-(4-(diisobutylamino)-2′-(1H-tetrazol-5-yl)biphenyl-3-yl)urea] | 1.78 | 1.84
Cc1ccc(NC(=O)Nc2cc(-c3ccccc3C(=O)O)cc(Cl)c2N(CC(C)C)CC(C)C)cc1 [Example 40, 3′-Chloro-4′-(diisobutylamino)-5′-(3-p-tolylureido)biphenyl-2-carboxylic acid] | 10 | 3.79
Cc1ccc(NC(=O)Nc2cc(-c3cc(F)ccc3C(=O)O)ccc2N(CC(C)C)CC(C)C)cc1 [Example 126, 4′-(diisobutylamino)-5-fluoro-3′-(3-p-tolylureido)biphenyl-2-carboxylic acid] | 10 | 20
Cc1ccc(NC(=O)Nc2cc(-c3ccc(Cl)cc3C(=O)O)ccc2N(CC(C)C)CC(C)C)cc1 [Example 127, 4-chloro-4′-(diisobutylamino)-3′-(3-p-tolylureido) biphenyl-2-carboxylic acid] | 80 | 130
COCCN(Cc1ccc(Cl)cc1)c1ccc(-c2cc(F)ccc2C(=O)O)cc1NC(=O)Nc1ccc(C)cc1 [Example 193, 4′-((4-chlorobenzyl)(2-methoxyethyl)amino)-5-fluoro-3′-(3-(p-tolyl)ureido)-[1,1′-biphenyl]-2-carboxylic acid] | 70 | 30
CC(C)CN(Cc1ccccc1)c1ccc(-c2ccccc2-c2nnn[nH]2)cc1NC(=O)Nc1ccc(OC(F)(F)F)cc1 [Example 290, 1-(4-(Benzyl(isobutyl)amino)-2′-(1H-tetrazol-5-yl)-[1,1′-biphenyl]-3-yl)-3-(4-(trifluoromethoxy)phenyl)urea] | 50 | 30
CC(C)CN(Cc1ccccc1)c1ccc(-c2ccccc2-c2nnn[nH]2)cc1NC(=O)Nc1ccc(C2CC2)cc1 [Example 291, 1-(4-(Benzyl(isobutyl)amino)-2′-(1H-tetrazol-5-yl)-[1,1′-biphenyl]-3-yl)-3-(4-cyclopropylphenyl)urea] | 1830 | 90
O=C(Nc1ccc(C2CC2)cc1)Nc1cc(-c2ccccc2-c2nnn[nH]2)ccc1N(CCC(F)(F)F)Cc1ccc(F)cc1C(F)(F)F [Example 299, 1-(4-cyclopropylphenyl)-3-(4-((4-fluoro-2-(trifluoromethyl)benzyl) (3,3,3-trifluoropropyl)amino)-2′-(1H-tetrazol-5-yl)-[1,1′-biphenyl]-3-yl)urea] | 50 | 20
O=C(Nc1ccc(C(F)(F)F)cc1F)Nc1cc(-c2ccccc2-c2nnn[nH]2)ccc1N(CCC(F)(F)F)Cc1ccc(OC(F)(F)F)cc1 [Example 301, 1-(2′-(1H-tetrazol-5-yl)-4-((4-(trifluoromethoxy)benzyl)(3,3,3-trifluoropropyl)amino)-[1,1′-biphenyl]-3-yl)-3-(2-fluoro-4-(trifluoromethyl)phenyl)urea] | 7.87 | 2.85
O=C(Nc1ccc(C2CC2)cc1)Nc1cc(-c2ccccc2-c2nnn[nH]2)ccc1N(CCC(F)(F)F)Cc1ccc(OC(F)(F)F)cc1 [Example 302, 1-(2′-(1H-tetrazol-5-yl)-4-((4-(trifluoromethoxy)benzyl)(3,3,3-trifluoropropyl)amino)-[1,1′-biphenyl]-3-yl)-3-(4-cyclopropylphenyl)urea] | 5.53 | 3.26
Cc1ccc(NC(=O)Nc2cc(-c3ccccc3-c3nnn[nH]3)ccc2N2CC3CC2CN3Cc2ccccc2)cc1 (centres unmarked) [Example 317, 1-(4-(5-benzyl-2,5-diazabicyclo[2.2.1]heptan-2-yl)-2′-(1H-tetrazol-5-yl)-[1,1′-biphenyl]-3-yl)-3-(p-tolyl)urea] | 50 | 30
O=C(Nc1ccc(F)cc1F)Nc1cc(-c2ccccc2-c2nnn[nH]2)ccc1N(CCc1ccccc1)CCC(F)(F)F [Example 332, 1-(2,4-difluorophenyl)-3-(4-(phenethyl(3,3,3-trifluoropropyl)amino)-2′-(1H-tetrazol-5-yl)-[1,1′-biphenyl]-3-yl) urea] | 110 | 80

More lines, now with the values ahead:

IC50 (Human IDO1) [nM] | IC50 (IDO) [nM] | Structure (SMILES)
100 | 80 | Cc1ccc(NC(=O)Nc2cc(-c3ccccc3C(=O)O)ccc2N(CCC(F)(F)F)Cc2ccc(Cl)cc2)cc1 [Example 14, 4′-((4-Chlorobenzyl)(3,3,3-trifluoropropyl)amino)-3′-(3-(p-tolyl)ureido)-[1,1′-biphenyl]-2-carboxylic acid]
40 | 20 | Cc1ccc(NC(=O)Nc2cc(-c3ccccc3-c3nnn[nH]3)ccc2N(CCC(F)(F)F)Cc2ccccc2Cl)cc1 [Example 19, 1-(4-((2-Chlorobenzyl)(3,3,3-trifluoropropyl)amino)-2′-(1H-tetrazol-5-yl)-[1,1′-biphenyl]-3-yl)-3-(p-tolyl)urea]
2.37 | 1 | Cc1ccc(NC(=O)Nc2cc(-c3ccccc3-c3nnn[nH]3)cc(Cl)c2N(CC(C)C)CC(C)C)cc1 [Example 39, 1-(5-Chloro-4-(diisobutylamino)-2′-(1H-tetrazol-5-yl)biphenyl-3-yl)-3-p-tolylurea]
6.31 | 1.78 | Cc1ccc(NC(=O)Nc2cc(-c3cc(F)ccc3C(=O)O)cc(Cl)c2N(CC(C)C)CC(C)C)cc1 [Example 41, 3′-Chloro-4′-(diisobutylamino)-5-fluoro-5′-(3-p-tolylureido)biphenyl-2-carboxylic acid]
60 | 40 | Cc1ccc(NC(=O)Nc2cc(-c3cccc(F)c3C(=O)O)ccc2N(CC(C)C)CC(C)C)cc1 [Example 150, 4′-(diisobutylamino)-3-fluoro-3′-(3-p-tolylureido)biphenyl-2-carboxylic acid]
2.13 | 2.73 | Cc1ccc(NC(=O)Nc2cc(-c3cc(F)ccc3C(=O)O)c(F)cc2N(CC(C)C)C2CCCCC2)cc1 [Example 231]
280 | 50 | O=C(Nc1ccc(C(F)(F)F)cc1F)Nc1cc(-c2ccccc2-c2nnn[nH]2)ccc1N(CCC(F)(F)F)Cc1ccccn1 [Example 303, 1-(2-fluoro-4-(trifluoromethyl)phenyl)-3-(4-((pyridin-2-ylmethyl)(3,3,3-trifluoropropyl)amino)-2′-(1H-tetrazol-5-yl)-[1,1′-biphenyl]-3-yl)urea]
20 | 20 | O=C(Nc1ccc(F)cc1F)Nc1cc(-c2ccccc2-c2nnn[nH]2)ccc1N(CCCC(F)(F)F)Cc1ccc(Cl)cc1 [Example 319, 1-(4-((4-chlorobenzyl)(4,4,4-trifluorobutyl)amino)-2′-(1H-tetrazol-5-yl)-[1,1′-biphenyl]-3-yl)-3-(2,4-difluorophenyl) urea]
220 | 60 | O=C(Nc1ccc(OC(F)(F)F)cc1)Nc1cc(-c2ccccc2-c2nnn[nH]2)ccc1N(CCCC(F)(F)F)Cc1ccc(Cl)cc1 [Example 322, 1-(4-((4-chlorobenzyl)(4,4,4-trifluorobutyl)amino)-2′-(1H-tetrazol-5-yl)-[1,1′-biphenyl]-3-yl)-3-(4-(trifluoromethoxy)phenyl)urea]
